Measurements as given in patent publication EP1260232A1, “REMEDIES FOR MALIGNANT TUMOR-CONCOMITANT NEUROSIS AND AZOOR OR ANALOGOUS DISEASES THEREOF” (priority 2000, dated 2001).

Tests used:
[1] = Clinical case: therapeutic effect on AZOOR, static visual field examination (Humphrey visual field analyzer); assay type: in vivo; conditions: one AZOOR patient
Source text: Case: History of the present illness: The patient became aware of dark and blurred vision in the center of their visual field on September 1, 1999, and visited Ohyachi Kyoritsu Eye Clinic on September 4 in the same year.. […] ERG was subnormal and normal for the right and left eyes, respectively. […] FAG detected mild leakage of fluorescein from the optic disc of the right eye. In view of these observations, optic nerve disorder was suspected and the patient was made to visit a brain surgeon in the neighborhood to receive CT and MRT examinations. However, no abnormality was found. […] To treat the eye symptom, the clinic prescribed oral medications such as drug for ameliorating circulation for a while, but no improvement of visual field was observed. Thus, on October 1, 1999, the patient was referred to the Department of ophthalmology at Sapporo Medical University, School of Medicine for close examination. Results of the first examination: Visual acuity was Vd=1.2 and Vs=1.2. Although pupils were round and equal in size, the right eye was RAPD(+) but no oculomotor abnormalities were observed. […] In the static visual field examination, reduction of the sensitivity in the central visual field was observed. Course of disease: Oral administration of prednisolone (40mg/day) was started on October 1, 1999. […]

apoptosis caused by CAR = assay: Therapeutic effect on cancer-associated neuropathy: ERG in rats after intravitreal anti-recoverin and anti-hsp70 antibodies; assay type: in vivo; conditions: Lewis rats, light for 24 hours; nilvadipine 3.2 mg/kg/day peritoneal for two weeks with antibody infusion into vitreous body; follow-up five weeks; compared with predonine 0.6 µg/kg/day i.m. and cyclosporine A 10 mg/kg/day i.m.; Fig. 1
Method: Test animal: Lewis rats (8 weeks of age) Treatment group 5 animals (10 eyes) Control group 5 animals (10 eyes) Photoenvironment: Apoptosis (cell death) was induced under light for 24 hours. Test drugs: Nilvadipine (3.2 mg/kg/day) by peritoneal administration (dissolving solution) polyethylene glycol 400: ethanol: water = 1:1:2 Predonine (0.6 µg/kg/day) by intramuscular injection (dissolving solution) PBS (phosphate buffer solution) Cyclosporine A (10 mg/kg/day) by intramuscular injection (dissolving solution) olive oil Antibodies: anti-recoverin antibody (5 µl/eye) anti-hsp70 antibody (5 µl/eye) Administration method: Test drugs were administered for two weeks along with infusion of antibodies into vitreous body of the eye. Follow-up observation was performed for five weeks after the start of administration. PBS alone was administered to the control group.
In Fig. 1, the vertical axis represents ERG (electroretinogram) amplitude, and the horizontal axis is the lapse of time in weeks. Δ: nilvadipine group; □: predonine group; ◇: cyclosporin A group; and ○: control group.

Row | Compound | static visual field examination / visual sensitivity ([1]; two months after start of oral nilvadipine, following 0.3 ml Depo-Medrol sub-Tenon's injection to both eyes, Figs. 4 and 5) | ERG (electroretinogram) amplitude (apoptosis caused by CAR) | visual field ([1]; oral prednisolone 40 mg/day reduced stepwise to 10 mg/day, October-November 1999, Figs. 2 and 3)
1 | COC(=O)C1=C(C#N)NC(C)=C(C(=O)OC(C)C)C1c1cccc([N+](=O)[O-])c1 (stereo not drawn) [nilvadipine, isopropyl 6-cyano-5-methoxycarbonyl-2-methyl-4-(3-nitrophenyl)-1,4-di hydropyridine-3-carboxylate ester] | remarkable improvement of visual sensitivity | more effective than predonine and cyclosporin A | –
2 | C[C@]12C=CC(=O)C=C1CC[C@@H]1[C@@H]2[C@@H](O)C[C@@]2(C)[C@H]1CC[C@]2(O)C(=O)CO [prednisolone] | – | – | could not improve the visual field
